{
  "source": "patent US20030180927A1",
  "about": "“Yeast protein methyltransferase hsl7p” (priority 2003, published 2003)",
  "molecules": {"B1": {"name": "Hs17p: yeast protein methyltransferase, homologue of Janus kinase binding protein 1, expressed by HSL7 (protein, UniProt P38274 1-827, looked up)", "Protein arginine …": "MHSNVFVGVKPGFNHKQHSKKSRFLENVSSHSPELPSNYDYVLLPITTPRYKEIVGQVFKDFQRQSIQNWKPLQIPEPQLQDICIPPFNVKKLDNDDTPSYIGLLSSWLELESRDPNVRDLGLKVLLNECKYARFVGINKLILAPPRDLSNLQLYGQMIYRLLQNRIVFAAPALTISISLPLYEDSDPLATWELWNTVRKQCEYHPSLTISLALPRTRTPSYVLNRWLAEPVSCLLVSSSIFASNQYDYPVLHKFNQNLILKFQKVNGDSQILGNELCVILHGMEKYANNVKGGESAYLEYINYLLKKGDKVLNSNSNHQFLLQEDSRIMPPLKPHSDNLLNSTYLTFEKDLVKYDLYESAILEALQDLAPRASAKRPLVILVAGAGRGPLVDRTFKIISMLFMDSKVSIIAIEKNPQAYLYLQKRNFDCWDNRVKLIKEDMTKWQINEPSEKRIQIDLCISELLGSFGCNELSPECLWSIEKYHSHNDTIFIPRSYSSYIAPISSPLFYQKLSQTNRSLEAPWIVHRVPYCILSSRVNEVWRFEHPMAQKDTVQDEDDFTVEFSQSSLNEFKIKHRGEIHGFIGFFSANLYNNIFLSTLPNDSTVRLKFSEETLMNTRREENLIKKCDHTPNMTSWSPIIFPLKQPISFIDDSELSVLMSRIHSDTEQKVWYEWSLESFIYLMLSNYTSAVTAASMTIPRSIVTDDTKTLAHNRHYSATTNQKLDNQIDLDQDIENEEEQGFLSNLETGWQSVQDIHGLSETAKPDHLDSINKPMFDLKSTKALEPSNELPRHEDLEEDVPEVHVRVKTSVSTLHNVCGRAFSLPL", "modifications": "FLAG tag"}},
  "key": {"[1]": {"target": "T1, Hs17p (Saccharomyces cerevisiae, UniProt P38274)", "T1 construct": "made in house; host or cells: S. cerevisiae hsl7-delta strain SPY103 (pGALFLAGHSL7, GAL1 promoter); anti-Flag immunoprecipitate", "T1 sequence (P38274 1-827)": "B1 Protein arginine …", "experiment": "In vitro methylation of myelin basic protein by Hs17p, inhibition", "format": "biochemical", "conditions": "[3H]AdoMet methyl donor, 30° C., 30 minutes, FIG. 2C", "protocol": "(§1) In Vitro Methylation. Immunoprecipitated Flag-Hs17p was used to methylate histones and myelin basic protein with minor modifications of the method previously described. Each reaction contained 10 ig of substrate proteins (histones, MBP and cytochrome c). [^3H]AdoMet was added to a final concentration of 55 iCi/ml. The reaction contained 150 mM NaCl, 50 mM Tris.HCl (pH 8.0), 1% NP-40, 0.8 mM PMSF, 3 μg/ml antipain, 10 ig/ml benzamidine (10^4 kallikrein-inactivating units/ml) plus 1 μg/ml each of leupeptin, chymostatin and pepstatin. The 50 μl reactions were incubated at 30° C. for 30 minutes.\n(§2) FIG. 2 illustrates the UV crosslinking of [^3H]AdoMet to Hs17p. […] After UV crosslinking, the 7.5% gel was dried and exposed to Biomax MR film for 15 days at −70° C. FIG. 2B show the in vitro methylation of protein substrates by Hs17p. Methylation reactions were done as described in “Experimental Procedures.” Each lane contained 10 μg at substrate protein. The position of the labeled bands coincided exactly with the location of the substrate proteins or the Coomassie blue-stained gel (not shown). The dried 15% gel was exposed to Biomax MR film for 21 days at −70° C. […] Protein sizes were calculated by the migration of broad range protein standards (BioRad)."}, "[2]": {"target": "JBP1 (Homo sapiens, UniProt O14744)", "sequence (O14744 whole entry)": "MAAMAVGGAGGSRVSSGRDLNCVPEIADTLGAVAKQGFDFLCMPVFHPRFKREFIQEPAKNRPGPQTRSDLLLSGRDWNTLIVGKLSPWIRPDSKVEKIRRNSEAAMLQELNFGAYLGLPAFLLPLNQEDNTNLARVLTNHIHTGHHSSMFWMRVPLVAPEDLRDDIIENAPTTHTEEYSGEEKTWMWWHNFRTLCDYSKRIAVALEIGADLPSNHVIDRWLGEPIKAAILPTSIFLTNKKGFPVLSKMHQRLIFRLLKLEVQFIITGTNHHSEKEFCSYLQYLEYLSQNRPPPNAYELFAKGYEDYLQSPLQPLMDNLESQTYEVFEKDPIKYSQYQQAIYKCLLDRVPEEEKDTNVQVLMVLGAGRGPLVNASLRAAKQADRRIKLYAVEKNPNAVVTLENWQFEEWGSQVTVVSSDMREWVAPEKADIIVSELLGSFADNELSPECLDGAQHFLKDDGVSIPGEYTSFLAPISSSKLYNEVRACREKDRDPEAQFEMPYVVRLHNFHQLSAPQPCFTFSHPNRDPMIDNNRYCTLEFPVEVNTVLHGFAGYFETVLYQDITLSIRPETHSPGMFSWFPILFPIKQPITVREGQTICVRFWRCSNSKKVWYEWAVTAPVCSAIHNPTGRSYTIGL", "sequence (Q9BQA1 whole entry partner)": "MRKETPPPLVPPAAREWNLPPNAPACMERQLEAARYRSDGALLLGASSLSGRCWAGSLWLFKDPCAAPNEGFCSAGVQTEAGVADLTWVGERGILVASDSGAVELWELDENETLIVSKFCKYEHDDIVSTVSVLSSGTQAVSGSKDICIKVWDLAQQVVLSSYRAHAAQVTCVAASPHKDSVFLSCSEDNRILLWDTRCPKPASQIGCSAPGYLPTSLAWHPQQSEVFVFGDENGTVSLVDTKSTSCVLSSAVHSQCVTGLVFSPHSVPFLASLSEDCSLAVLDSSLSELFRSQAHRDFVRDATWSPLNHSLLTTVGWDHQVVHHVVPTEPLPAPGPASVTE", "experiment": "In vitro methylation of myelin basic protein by JBP1, inhibition", "format": "biochemical", "conditions": "[3H]AdoMet methyl donor, 30° C., 30 minutes, FIG. 2C", "protocol": "as §1, §2"}, "[3]": {"experiment": "UV crosslinking of [3H]AdoMet", "format": "binding", "conditions": "immunoprecipitated protein, FIG. 2A", "protocol": "UV Crosslinking. Crosslinking of [^3H]AdoMet to Hs17p and JBP1 was performed as described.\nFIG. 2 illustrates the UV crosslinking of [^3H]AdoMet to Hs17p. […] After UV crosslinking, the 7.5% gel was dried and exposed to Biomax MR film for 15 days at −70° C. FIG. 2B show the in vitro methylation of protein substrates by Hs17p. Methylation reactions were done as described in “Experimental Procedures.” Each lane contained 10 μg at substrate protein. The position of the labeled bands coincided exactly with the location of the substrate proteins or the Coomassie blue-stained gel (not shown). The dried 15% gel was exposed to Biomax MR film for 21 days at −70° C. […] Protein methylation reactions were conducted as described in “Experimental Procedures,” except that homocysteine was added to the other reaction components on ice. The reactions were then incubated at 30° C. for 30 minutes. The 15% gel was exposed to Biomax MR film for 14 days at −70° C. Protein sizes were calculated by the migration of broad range protein standards (BioRad)."}, "[4]": {"test_system": "calf histones, bovine myelin basic protein and bovine cytochrome c", "experiment": "In vitro methylation of protein substrates", "format": "biochemical", "conditions": "substrates H2A, H4 and myelin basic protein, 10 μg, FIG. 2B", "protocol": "as §1, §2"}},
  "data": [
    {"molecule": "N[C@@H](CCS)C(=O)O", "note": "[homocysteine]", "values": [
      {"measurement": "inhibition of myelin basic protein in vitro methylation by Hs17p", "setting": "[1]", "result": "blocks"},
      {"measurement": "inhibition of myelin basic protein in vitro methylation by JBP1", "setting": "[2]", "result": "blocks"}
    ]},
    {"molecule": "B1", "values": [
      {"measurement": "UV crosslinking / binding of [3H]AdoMet", "setting": "[3]", "result": "binds AdoMet"},
      {"measurement": "in vitro methylation of substrate protein", "setting": "[4]", "result": "methylated"}
    ]}
  ]
}
